From patent publication US8709451B2, “Stable nanoemulsions for ultrasound-mediated drug delivery and imaging” (University of Utah Research Foundation, priority 2010, dated 2014)

How the values were obtained:
[1] = test system: A2780 ovarian cancer cells; test: Confocal imaging of DOX uptake by substrate-attached cells without ultrasound; format: cell-based; conditions: no ultrasound, 20 μg/mL DOX
Protocol: A2780 cells were grown on cover glass in an 8 well cover glass chamber (LabTek chambered cover glass, NUNC, Rochester, N.Y.), and incubated with either, DOX dissolved in PBS, DOX-loaded 1.4% PEG-PCL micelle solution, or DOX-loaded 1% PFCE or PFP emulsions. Hoechst 33258 (Sigma Aldrich, St Louis, Mo.) stain was used to identify the nuclei of the A2780 cancer cells. Confocal fluorescent images of the cells were obtained using inverted confocal microscope (Olympus IX81, Olympus America Inc., Center Valley, Pa.); and the images were processed using ImageJ software. Emission filters of 570 nm for DOX and 480 nm for Hoechst were selected for imaging. In some experiments, DAPI was added to stain the cells before incubation with DOX and ultrasound exposure as discussed below.
A2780 drug sensitive cells, grown on chambered cover slip were incubated with different DOX formulations and confocal fluorescent images were obtained (FIGS. 14 and 15). Different image slices of the cell layer attached to the cover slip were recorded at an incremental step of 0.5 μm depth from the bottom to top of the cell layer (z-direction). The images recorded were stacked in z-direction and processed using ImageJ. The brightness and contrast ratios of magnified insets of the images were modified to reveal the intracellular distribution of fluorescence. […]
DOX fluorescence inside the cells was characterized by the R/G ratio where R is the intensity of red color and G is that of green color at the same region of interest (ROI) inside the cells. This ratio is used because DOX absorbs green light that ignites its red fluorescence. The R and G values and ratios were measured using ImageJ software.
The red/green (R/G) ratio of the fluorescence inside the cells and R/G ratio of the background fluorescence from the cover slip were measured. […] The cells incubated with either PFCE or PFP droplets have lower fluorescence (R/G ratios of 0.31 and 0.14 for PFCE and PFP respectively) than the cells incubated with DOX in micellar solution (R/G ratio of 0.63). […]

[2] = test system: A2780 ovarian cancer cells; test: Sonication of suspended cells with DOX formulations, confocal imaging; format: cell-based; conditions: 3-MHz CW ultrasound, DOX 10 μg/mL
Protocol: A2780 cells were lifted off the culture T-flasks with 1× Trypsin (0.25% trypsin, 0.02% EDTA, Sigma Aldrich, St Louis, Mo.). The cells were resuspended in media. This suspension was mixed 2:1 volume ratio with DOX-containing formulations with typical cell concentrations of 5.7×10^6 cells/mL. Two types of DOX solutions in PBS were used: hydrophilic hydrochloride salt DOX-HCl (20 μg/mL) or deprotonated DOX; the concentration in PBS was 20 μg/mL for either molecule. DOX formulations included deprotonated DOX incorporated in 1.4% PEG-PCL micellar solution or DOX incorporated in 1% PFCE or PFP PEG-PCL emulsion; DOX concentration was the same as in PBS solutions (20 μg/mL). […] Pressure was measured using ONDA needle hydrophone (Onda HNR-0500) (calibrated in October, 2009) placed in front of the probe with a distance of 0.5 cm from the probe. […] After ultrasound treatments, a droplet of the cell suspension was placed on a glass slide, and the fluorescence inside the cells was observed and quantified using confocal microscope as described above. […]

Row | Structure (SMILES) | DOX penetration into cell nuclei [1] | cellular uptake of DOX [1] | effect of ultrasound on DOX penetration into cell nuclei [2]
1 | COc1cccc2c1C(=O)c1c(O)c3c(c(O)c1C2=O)C[C@@](O)(C(=O)CO)C[C@@H]3O[C@H]1C[C@H](N)[C@H](O)[C@H](C)O1 [deprotonated DOX, doxorubicin] | did not get into the nuclei | low cellular uptake | marginal
2 | COc1cccc2c1C(=O)c1c(O)c3c(c(O)c1C2=O)C[C@@](O)(C(=O)CO)C[C@@H]3O[C@H]1C[C@H](N)[C@H](O)[C@H](C)O1.Cl [hydrophilic DOX, doxorubicin] | red fluorescence in the nuclei | – | –
